Results published in patent publication US7144720B2, “Protein and DNA thereof” (Takeda Chemical Industries, Ltd., priority 1998, dated 2006).
Peptide text beside a SMILES is read from it. * marks the point of attachment. Cbz = O=C(OCc1ccccc1)*; NHOH = ON*

T1: ADAM protein (Homo sapiens, UniProt Q9UKQ2)
T1 construct: made in house; host or cells: Escherichia coli BL21 (DE3)
T1 sequence (Q9UKQ2 199-495): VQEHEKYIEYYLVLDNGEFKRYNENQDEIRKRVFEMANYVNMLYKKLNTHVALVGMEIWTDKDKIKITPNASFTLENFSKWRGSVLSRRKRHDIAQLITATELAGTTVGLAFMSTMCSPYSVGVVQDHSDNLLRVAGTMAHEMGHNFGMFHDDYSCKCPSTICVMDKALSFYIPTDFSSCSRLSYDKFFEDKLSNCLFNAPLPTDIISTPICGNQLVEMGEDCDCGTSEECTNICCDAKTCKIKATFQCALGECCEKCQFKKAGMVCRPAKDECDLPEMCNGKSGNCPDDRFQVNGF

T2: Nma-Pro-Lys-Pro-Leu-Ala-Nva-Trp-Lys(DNP)-NH2 (Homo sapiens, UniProt Q9UKQ2)
T2 construct: made in house; host or cells: Escherichia coli BL21 (DE3)
T2 sequence (Q9UKQ2 199-495): T1 sequence (Q9UKQ2 199-495)

T3: MOCAc-Arg-Pro-Lys-Pro-Tyr-Ala-Nva-Trp-Met-Lys(DNP)-NH2 (Homo sapiens, UniProt Q9UKQ2)
T3 construct: made in house; host or cells: Escherichia coli BL21 (DE3)
T3 sequence (Q9UKQ2 199-495): T1 sequence (Q9UKQ2 199-495)

B1: recombinant ADAM protein: about 35 kDa His-tagged metalloprotease and disintegrin region of the novel human ADAM protein, expressed in Escherichia coli from pMDH (protein)
chain: T1 sequence (Q9UKQ2 199-495)
modifications: left off: small tags and cut ends
notes: about 35 kDa His-tagged metalloprotease and disintegrin region of the novel human ADAM protein, expressed in Escherichia coli from pMDH

What was measured:
Type in all cases: biochemical
[1] = biological target: T1, ADAM protein; assay: Inhibition of the protease activity of the ADAM protein by test compounds; conditions: Nma-Pro-Lys-Pro-Leu-Ala-Nva-Trp-Lys(DNP)-NH2 substrate, 37° C., 2 hours; read-out: IC50 value (concentration of a test compound which 50% inhibits the protease activity)
Experimental: (§1) An enzymatic reaction was initiated by adding 75 μl of a buffer (83.3 mM Tris-HCl, pH 7.5, 16.7 mM NaCl, 1.67 mM CaCl2, 16.7 μM CoCl2, and 0.067% BSA) to a solution (25 μl) of the ADAM protein obtained according to the same manner as that of Example 3, and adding 25 μl of a solution of a substrate (50 μM Nma-Pro-Lys-Pro-Leu-Ala-Nva-Trp-Lys(DNP)-NH2, 0.05% BSA, and 5% DMSO). After a temperature was held at 37° C. for 2 hours, 100 μl of a 0.5M acetate buffer (pH 3.0) was added to stop the enzymatic reaction. The fluorescent intensity in the case of addition of no an enzyme solution [fluorescent intensity was measured at an excitation wavelength of 340 nm and a measuring wavelength of 450 nm using a fluorescent platereader (Corona MTP-32)] was 10, while the fluorescent intensity in the case of addition of the enzyme solution was 180.
10 μl of a test compound adjusted to the predetermined concentration (dissolved in 50% DMSO) was added to the above activity measuring system. […] From this, it was considered that search on a substance which regulates (inhibits or promotes) the protease activity of the present ADAM protein can be conducted using the present assay system.

[2] = biological target: T2, Nma-Pro-Lys-Pro-Leu-Ala-Nva-Trp-Lys(DNP)-NH2; assay: Protease activity of ADAM protein with Nma peptide substrate; conditions: 37° C. for 2 hours; excitation 340 nm, measuring 450 nm; intensity 10 without enzyme solution
Experimental: as §1

[3] = biological target: T3, MOCAc-Arg-Pro-Lys-Pro-Tyr-Ala-Nva-Trp-Met-Lys(DNP)-NH2; assay: Detection of the protease activity of recombinant ADAM protein (fluorogenic MOCAc peptide substrate); conditions: 37° C. for 22 hour; excitation 328 nm, 393 nm; 10 μM substrate; intensity 2 when no protein added
Experimental: 30 μL of a buffer [250 mM Tris-hydrochloric acid (pH7.5), 5 mM calcium chloride, and 10 μM zinc chloride] and 20 μL of the recombinant ADAM protein (0.8 mg/mL) obtained in Example 3 were added to a 96-well plate (Fluoro B plate, manufactured by Dainihonseiyaku). After preincuvation at 37° C. for 10 minutes, an enzymatic reaction was initiated by adding 100 μL of a 10 μM substrate [MOCAc-Arg-Pro-Lys-Pro-Tyr-Ala-Nva-Trp -Met-Lys(DNP)-NH2, manufactured by Peptide Laboratory]. After the reaction at 37° C. for 22 hour, the fluorescent intensity in the reaction solution was measured at an excitation wave length of 328 nm and […] wave length of 393 nm using a microplatereader (manufactured by Applied Biosystems). The fluorescent intensity was 2 when no recombinant ADAM protein was added, while the fluorescent intensity of 70 was shown when the protein was added. From these, it was made clear that the present ADAM protein had the protease activity. It is considered that search of a substance which regulates (inhibits and promotes) the protease activity of the present ADAM protein is possible using this assay.

Molecule | IC50 [1] | fluorescent intensity [2] | fluorescent intensity [3]
CC(C)C[C@H](NC(=O)[C@@H]1CCCN1C(=O)OCc1ccccc1)C(=O)NCC(=O)NO [N-CBZ-Pro-Leu-Gly-hydroxamate] (Cbz-Pro-Leu-Gly-{NHOH}) | ~100 µM |  | 
CCCCC[C@H](CC(=O)NO)C(=O)N[C@H](C(=O)N1CCC[C@H]1CO)C(C)C [actinonin] | 600 µM |  | 
B1 |  | 180 | 70
